Earlier results as cited in patent publication US20050171207A1, “Method and composition for combination treatment of neurodegenerative disorders” (Myriad Genetics, Incorporated, priority 2003, published 2005).
Read-outs that look alike come from different tables or passages of the source.

How the values were obtained:
mild-to-moderate AD [1] = details: rofecoxib at 25 mg daily; naproxen in the same trial
[2] = test system: pain related chemo-somatosensory evoked potentials; details: 50 mg and 100 mg doses, human subjects
Aβ42 [3] = details: CHO cells
Aβ42 [4] = details: transgenic mouse model
mild-to-moderate AD [5] = details: in vivo
[6] = test system: Alzheimer's disease excitotoxic model; details: in vivo Alzheimer's disease excitotoxic model system

COc1ccc2cc([C@H](C)C(=O)O)ccc2c1 [Naproxen]
efficacy for treating AD (mild-to-moderate AD [1]): failed to show efficacy

C[C@@H](C(=O)O)c1ccc(-c2ccccc2)c(F)c1 [R-flurbiprofen]
inhibition of COX activity (COX): negligibly inhibits COX activity | analgesic effect [2]: produced an analgesic effect | Aβ42 lowering (Aβ42 [3]): lower Aβ42 | Aβ42 lowering (Aβ42 [4]): lower Aβ42

CC12CC3CC(C)(C1)CC(N)(C3)C2 [memantine]
efficacy in treating mild-to-moderate AD (mild-to-moderate AD [5]): showed efficacy

CS(=O)(=O)c1ccc(C2=C(c3ccccc3)C(=O)OC2)cc1 [rofecoxib]
neuroprotection [6]: provides neuroprotection | efficacy for treating AD (mild-to-moderate AD [1]): failed to show efficacy
